The source of these data is patent publication US9119853B2, “Sanglifehrin based compounds” (priority 2010, dated 2015).

The nature of data set [1]: Cell viability (dye uptake) in the HBV assay. In kind it is cell-based. The note with it: human, HepG2 2.2.15 cells; read-out: TC50. How it is done: (§1) Antiviral efficacy against HBV may be tested as follows: HepG2 2.2.15 cells are plated in 96-well microtiter plates. After 16-24 hours the confluent monolayer of HepG2 2.2.15 cells is washed and the medium is replaced with complete medium containing various concentrations of a test compound in triplicate (eg six half-log concentrations). Three days later the culture medium is replaced with fresh medium containing the appropriately diluted test compounds. Six days following the initial administration of the test compound, the cell culture supernatant is collected, treated with pronase and then used in a real-time quantitative TaqMan qPCR assay. The PCR-amplified HBV DNA is detected in real-time by monitoring increases in fluorescence signals that result from the exonucleolytic degradation of a quenched fluorescent probe molecule that hybridizes to the amplified HBV DNA. For each PCR amplification, a standard curve is simultaneously generated using dilutions of purified HBV DNA. Antiviral activity is calculated from the reduction in HBV DNA levels (IC50). A dye uptake assay is then employed to measure cell viability, which is used to calculate toxicity (TC50). The therapeutic index (TI) is calculated as TC50/IC50.

Data set [2] concerns the target T1, GST-CypD / Con1 NS5A-His complex (Homo sapiens, UniProt P30405). Description: biochemical.
In data set [3] the test system is HIV (pNL4.3-GFP / pNL4.3-BaL-GFP) in macrophages. Description: microbe, parasite or virus in culture. In kind it is cell-based. The note with it: Human immunodeficiency virus 1, BAL, Macrophage, 48 h, read-out: Macrophages EC50.
The nature of data set [4]: Anti-metabolic effect (MTS) in the replicon cell line. The note with it: human.
In data set [5] the target is T1, GST-CypD / Con1 NS5A-His complex. Briefly: ELISA analysis of Cyp-NS5A interaction (CypD-NS5A disruption).
The test system of data set [6] is HIV (pNL4.3-GFP / pNL4.3-BaL-GFP) in Jurkat cells. Description: microbe, parasite or virus in culture. The format is cell-based. The note with it: Human immunodeficiency virus 1, BAL, 48 h, read-out: T cells EC50.
The test system of data set [7] is HCV genotype 1b I389luc-ubi-neo/NS3-3'/5.1 replicon in Huh5.2 cells. Description: microbe, parasite or virus in culture. In kind it is cell-based, Hepatitis C Virus.
Data set [8] concerns peripheral blood mononuclear cells (PBMC). Briefly: Mixed lymphocyte reaction (MLR) for immunosuppressant activity. The format is cell-based, human. The note with it: for IC50: read-out: Human MLR IC50.
Data set [9] relates to HIV (pNL4.3-GFP / pNL4.3-BaL-GFP) in CD4+ T-lymphocytes. Briefly: microbe, parasite or virus in culture. The format is cell-based. The note with it: Human immunodeficiency virus 1, BAL, T-lymphocyte, 48 h, read-out: CD4+ T-lymphocytes EC50.
For data set [10], the system named is HIV (pNL4.3-GFP / pNL4.3-BaL-GFP) in CD4+ HeLa cells. Briefly: microbe, parasite or virus in culture. The format is cell-based. The note with it: for EC50: Human immunodeficiency virus 1, BAL, HeLa, 48 h, read-out: HeLa cells EC50; for potency at inhibiting HIV infection compared to cyclosporine A, 1 (in words): four cell types.
Data set [11] concerns HBV in HepG2 2.2.15 cells. Briefly: HBV antiviral assay (HBV DNA by qPCR). The format is cell-based, Hepatitis B Virus. The note with it: for EC50: Hepatitis B virus, read-out: HBV EC50.
Data set [12] relates to HepG2 2.2.15 cells. Briefly: Cell viability (dye uptake) in the HBV assay. In kind it is cell-based. The note with it: at concentrations up to 32 μM. The protocol: as §1
Data set [13] in a line: physchem. The note with it: pH 7.4, aqueous buffer, kinetic from dmso stock.
For data set [14] the following is noted: pH 7.4.
Data set [15] concerns the target CyPA (Homo sapiens, UniProt P62937). The note with it: cited from earlier work.
For data set [16], the system named is Huh5.2 cells. Briefly: Anti-metabolic effect (MTS) in the replicon cell line.
The subject of data set [17] is HIV-1. The note with it: clinical, Steyn et al., 2006, cited from earlier work.
The subject of data set [18] is HBV. The note with it: Ptak et al. 2008; read-out: IC50 against HBV; cited from earlier work.
The mark [19] stands for this setting: Hepatitis C virus, Huh-5-2, 72 h.

Molecules are shown by their SMILES. ≈ marks a conversion by molar mass, not a printed value. Read-outs that look alike come from different tables or passages of the source.

T1 sequence (P30405 30-207, one chain of several): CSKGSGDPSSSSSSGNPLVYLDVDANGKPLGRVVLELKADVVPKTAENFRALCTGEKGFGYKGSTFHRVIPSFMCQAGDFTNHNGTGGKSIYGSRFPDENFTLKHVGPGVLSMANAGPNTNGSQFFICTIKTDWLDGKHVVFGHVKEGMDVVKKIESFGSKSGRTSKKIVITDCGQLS
CyPA, sequence (P62937 whole entry): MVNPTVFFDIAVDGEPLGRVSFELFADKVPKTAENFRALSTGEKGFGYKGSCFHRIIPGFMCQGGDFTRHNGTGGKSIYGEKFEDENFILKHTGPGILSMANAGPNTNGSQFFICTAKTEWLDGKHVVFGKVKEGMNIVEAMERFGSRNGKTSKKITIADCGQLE

Consider `CC(=O)CC[C@H]1C(=O)N[C@@H](C(C)C)C(=O)N[C@@H](Cc2cccc(O)c2)C(=O)N2CCCC(N2)C(=O)O[C@H](/C(C)=C/C=C/C(=O)Nc2ccccn2)C/C=C/C=C/[C@H](O)[C@H](C)[C@H]1O` (stereo partly shown) [compound 48], for which the CC50 at 6 days in data set [1] was above 32000 nM. Besides, the half-maximal inhibitory concentration (IC50) in [2] is 380 nM; in data set [8] (Homo sapiens, PBMC), 1060 nM. Also, the EC50 is 210 nM in [3]; 110 nM in [6]; 167 nM in data set [7] (setting [19]); 140 nM in data set [9]; 250 nM in data set [10]; above 32000 nM in [11] (HepG2 2.2.15, […]). In data set [4], the CC50 at 72 h came out at 39700 nM. In addition, in [5], the “disruption of the CypD-NS5A complex (in words)” value is “potent disruption”. Besides, the “potency in the Huh5.2 replicon assay (in words)” value in data set [7] was “very potent”. In data set [7] (setting [19]), the EC90 stood at 737 nM. Further, the “immunosuppressive activity (in words)” value in data set [8] (MLR) is recorded as “very low levels of immunosuppressive activity”. The “potency at inhibiting HIV infection compared to cyclosporine A, 1 (in words)” value in [10] is recorded as “significantly more potent”.

For `CON(C)C(=O)/C=C/C=C(\C)[C@@H]1C/C=C/C=C/C=C(\C)[C@@H](O)[C@@H](CCC(C)=O)C(=O)N[C@@H](C(C)C)C(=O)N[C@@H](Cc2cccc(O)c2)C(=O)N2CCCC(N2)C(=O)O1` (stereo partly shown) [compound 29], in data set [1], the CC50 at 6 days was above 32000 nM. In addition, in [12], the “cytotoxicity in HBV assay (in words)” value is recorded as “no cytotoxicity”. This molecule registered an IC50 in [2] of 250 nM. Moreover, the 50% effective concentration (EC50) in data set [3] is 310 nM; in [6], 200 nM; in data set [7] (setting [19]) it was 293 nM; in data set [9], 210 nM; in data set [10], 400 nM; in data set [11] (HepG2 2.2.15, six days), below 100 nM. Moreover, the CC50 at 72 h in [4] stood at 20200 nM. Further, the “disruption of the CypD-NS5A complex (in words)” value in data set [5] is “potent disruption”. Further, the “Selectivity index (CC50/EC50)” value in data set [7] was determined as 68.4. For the same molecule, in data set [7], the “potency in the Huh5.2 replicon assay (in words)” value is on record as “very potent”. Besides, the 90% effect level in [7] (setting [19]) (EC90) was put at 1500 nM. This molecule had a Solubility in data set [13] of 66 µM (≈ 53.2 µg/mL). The “potency at inhibiting HIV infection compared to cyclosporine A, 1 (in words)” value in data set [10] is on record as “significantly more potent”. Further, the “inhibiting replication of HBV (in words)” value in data set [11] is on record as “remarkably potent”.

Consider `CC[C@H]1C[C@H](C)[C@@]2(NC1=O)O[C@@H](C[C@H](O)[C@@H](C)CC/C=C/C=C(\C)[C@@H]1C/C=C/C=C/[C@H](O)[C@H](C)[C@@H](O)[C@@H](CCC(C)=O)C(=O)N[C@@H](C(C)C)C(=O)N[C@@H](Cc3cccc(O)c3)C(=O)N3CCC[C@H](N3)C(=O)O1)[C@H](C)[C@H](O)[C@@H]2C` [Sanglifehrin A, 5, Sanglifehrin A, reference compound], for which the Solubility in data set [14] came out at 9.4 µM (≈ 10.2 µg/mL). Besides, the “higher affinity for CyPA compared to CsA” value in data set [15] is given as “approximately 20 fold”. This molecule also registered a CC50 in data set [16] (Huh5.2 cells, MTS, 72 hours) of 9100 nM. The “cytotoxicity against the cell line (in words)” value in [16] (as shown by CC50) is listed as “more cytotoxicity”. In addition, the IC50 in [5] came out at 370 nM; in data set [8] (3H-thymidine proliferation), 215 nM. Further, the EC50 in [7] (read-out: EC50) stood at 318 nM. Besides, the EC90 in data set [7] (read-out: EC90) amounted to 5500 nM.

With `C/C=C/C[C@@H](C)[C@@H](O)[C@H]1C(=O)N[C@@H](CC)C(=O)N(C)[C@H](C)C(=O)N(CC)[C@@H](C(C)C)C(=O)N[C@@H](C(C)C)C(=O)N(C)[C@@H](CC(C)C)C(=O)N[C@@H](C)C(=O)N[C@H](C)C(=O)N(C)[C@@H](CC(C)C)C(=O)N(C)[C@@H](CC(C)C)C(=O)N(C)[C@@H](C(C)C)C(=O)N1C` [DEBIO-025], the “reduction of HIV-1 RNA levels” value was at least 0.5 log10 copies/mL in [17] (in nine patients) and above 1 log10 copies/mL in [17] (in two patients). Also, the IC50 in data set [18] is 4100 nM.
